Laboratory results as given in PubChem BioAssay (NCI).
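All cell lines were grown in 96-well plates and treated with compound for 48 hours. TGI is the concentration that stops growth completely.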

Assays:
Experiment in all cases: growth of human tumour cells (NCI), 48 h
MOLT-4 leukemia = test system: MOLT-4 leukemia
HOP-92 NSCLC = test system: HOP-92 NSCLC
DU-145 prostate = test system: DU-145 prostate
PC-3 prostate = test system: PC-3 prostate
SF-268 CNS = test system: SF-268 CNS
HS 578T breast = test system: HS 578T breast
OVCAR-3 ovarian = test system: OVCAR-3 ovarian
SNB-19 CNS = test system: SNB-19 CNS
CCRF-CEM leukemia = test system: CCRF-CEM leukemia
U251 CNS = test system: U251 CNS
ACHN renal = test system: ACHN renal
HCT-15 colon = test system: HCT-15 colon
TK-10 renal = test system: TK-10 renal
SW-620 colon = test system: SW-620 colon
OVCAR-4 ovarian = test system: OVCAR-4 ovarian
NCI-H23 lung = test system: NCI-H23 lung
MDA-MB-435 = test system: MDA-MB-435
A498 renal = test system: A498 renal
SF-295 CNS = test system: SF-295 CNS
SN12C renal = test system: SN12C renal
EKVX NSCLC = test system: EKVX NSCLC
NCI/ADR-RES ovarian = test system: NCI/ADR-RES ovarian
MDA-MB-231 breast = test system: MDA-MB-231 breast
CAKI-1 renal = test system: CAKI-1 renal
MCF7 breast = test system: MCF7 breast
HL-60(TB) leukemia = test system: HL-60(TB) leukemia
HOP-62 NSCLC = test system: HOP-62 NSCLC
OVCAR-8 ovarian = test system: OVCAR-8 ovarian
MDA-N = test system: MDA-N
NCI-H522 lung = test system: NCI-H522 lung
OVCAR-5 ovarian = test system: OVCAR-5 ovarian
SK-MEL-5 melanoma = test system: SK-MEL-5 melanoma
COLO 205 colon = test system: COLO 205 colon
NCI-H460 lung = test system: NCI-H460 lung
LOX IMVI melanoma = test system: LOX IMVI melanoma
HT29 colon = test system: HT29 colon
UACC-62 melanoma = test system: UACC-62 melanoma
NCI-H226 lung = test system: NCI-H226 lung
M14 melanoma = test system: M14 melanoma
SR leukemia = test system: SR leukemia
IGROV1 ovarian = test system: IGROV1 ovarian
SK-OV-3 ovarian = test system: SK-OV-3 ovarian
T-47D breast = test system: T-47D breast
BT-549 breast = test system: BT-549 breast
HCC-2998 colon = test system: HCC-2998 colon
SK-MEL-2 melanoma = test system: SK-MEL-2 melanoma
HCT-116 colon = test system: HCT-116 colon
K-562 leukemia = test system: K-562 leukemia
SNB-75 CNS = test system: SNB-75 CNS
RXF 393 renal = test system: RXF 393 renal
MALME-3M melanoma = test system: MALME-3M melanoma
A549 NSCLC = test system: A549 NSCLC
SF-539 CNS = test system: SF-539 CNS
RPMI-8226 leukemia = test system: RPMI-8226 leukemia
SK-MEL-28 melanoma = test system: SK-MEL-28 melanoma
786-0 renal = test system: 786-0 renal
KM12 colon = test system: KM12 colon
UACC-257 melanoma = test system: UACC-257 melanoma

Measured: TGI

OC(CC(CC(O)(C(F)(F)F)C(F)(F)F)=NN=C(CC(O)(C(F)(F)F)C(F)(F)F)CC(O)(C(F)(F)F)C(F)(F)F)(C(F)(F)F)C(F)(F)F
> 10 µM: MOLT-4 leukemia | HOP-92 NSCLC | DU-145 prostate | PC-3 prostate | SF-268 CNS | HS 578T breast | OVCAR-3 ovarian | SNB-19 CNS | CCRF-CEM leukemia | U251 CNS | ACHN renal | HCT-15 colon | TK-10 renal | SW-620 colon | OVCAR-4 ovarian | NCI-H23 lung | MDA-MB-435 | A498 renal | SF-295 CNS | SN12C renal | EKVX NSCLC | NCI/ADR-RES ovarian | MDA-MB-231 breast | CAKI-1 renal | MCF7 breast | HL-60(TB) leukemia | HOP-62 NSCLC | OVCAR-8 ovarian | MDA-N | NCI-H522 lung | OVCAR-5 ovarian | SK-MEL-5 melanoma | COLO 205 colon | NCI-H460 lung | LOX IMVI melanoma | HT29 colon | UACC-62 melanoma | NCI-H226 lung | M14 melanoma | SR leukemia | IGROV1 ovarian | SK-OV-3 ovarian | T-47D breast | BT-549 breast | HCC-2998 colon | SK-MEL-2 melanoma | HCT-116 colon | K-562 leukemia | SNB-75 CNS | RXF 393 renal | MALME-3M melanoma | A549 NSCLC | SF-539 CNS | RPMI-8226 leukemia | SK-MEL-28 melanoma | 786-0 renal | KM12 colon | UACC-257 melanoma
